Reference: article PMC8815882, “Screening the pandemic response box identified benzimidazole carbamates, Olorofim and ravuconazole as promising drug candidates for the treatment of eumycetoma” (PLoS Neglected Tropical Diseases, 2022)
Like-named read-outs stand apart in the source and are kept apart here.

Tested on: M. mycetomatis genome strain MM55
Test: CLSI M38-A2 based in vitro susceptibility screening (XTT or resazurin), growth at fixed concentration
Type: cell-based, Madurella mycetomatis
Details: Madurella mycetomatis; for Percent fungal survival at 100 µM: read-out: Percentage survival at 100um, 100 uM A (second replicate column)
[1] = mean of replicates, read-out: Percentage survival at 25um, 25 uM mean
[2] = replicate A, read-out: Percentage survival at 25um, 25 um A
[3] = replicate B, read-out: Percentage survival at 25um, 25 uM B
[4] = replicate C, read-out: Percentage survival at 25um, 25 uM C
[5] = mean of replicates, read-out: Percentage survival at 100um, 100 uM mean
[6] = replicate 1, read-out: Percentage survival at 100um, 100 uM A
[7] = replicate 2, read-out: Percentage survival at 100um, 100 uM A
[8] = replicate 3, read-out: Percentage survival at 100um, 100 uM A
[9] = mean, read-out: Percentage survival at 25um, 25 uM mean
[10] = mean, read-out: Percentage survival at 100um, 100 uM mean
[11] = replicate (first column), read-out: Percentage survival at 100um, 100 uM A
[12] = replicate (second column), read-out: Percentage survival at 100um, 100 uM A
[13] = replicate (third column), read-out: Percentage survival at 100um, 100 uM A
[14] = mean of three replicates, read-out: Percentage survival at 25um, 25 uM mean
[15] = mean of three replicates, read-out: Percentage survival at 100um, 100 uM mean
[16] = replicate 1, read-out: Percentage survival at 100um, 100 uM A (first replicate column)
[17] = replicate 3, read-out: Percentage survival at 100um, 100 uM A (third replicate column)
[18] = first replicate column, read-out: Percentage survival at 100um, 100 uM A
[19] = second replicate column, read-out: Percentage survival at 100um, 100 uM A
[20] = third replicate column, read-out: Percentage survival at 100um, 100 uM A
[21] = mean of replicates, MM55, read-out: Percentage survival at 25um, 25 uM mean
[22] = replicate A, MM55, read-out: Percentage survival at 25um, 25 um A
[23] = replicate B, MM55, read-out: Percentage survival at 25um, 25 uM B
[24] = replicate C, MM55, read-out: Percentage survival at 25um, 25 uM C
[25] = mean of replicates, MM55, read-out: Percentage survival at 100um, 100 uM mean
[26] = replicate 1, MM55, read-out: Percentage survival at 100um, 100 uM A
[27] = replicate 2, MM55, read-out: Percentage survival at 100um, 100 uM A
[28] = replicate 3, MM55, read-out: Percentage survival at 100um, 100 uM A

Cc1c(CN(C)C(=O)/C=C/c2cnc3c(c2)C(C)(C)C(=O)N3)oc2ccccc12 [MMV1579788] gave an activity at 25 µM [1] of 75.8%, an activity at 25 µM [2] of 69.6% and an activity at 25 µM [3] of 89.2%. For the same molecule, the activity at 25 µM [4] was 68.5%, the activity at 100 µM [5] was 90.5% and the activity at 100 µM [6] was 57.9%. The activity at 100 µM [7] was 71.3% and the activity at 100 µM [8] was 142%.
For OC(Cn1cncn1)(Cn1cncn1)c1ccc(F)cc1F [MMV002337], the activity at 25 µM [9] was 113%, the activity at 25 µM [2] was 137% and the activity at 25 µM [3] was 52.7%. For the same molecule, the activity at 25 µM [4] was 150%, the activity at 100 µM [10] was 1.38% and the activity at 100 µM [11] was -3.44%. The activity at 100 µM [12] was 4.59% and the activity at 100 µM [13] was 3.01%.
Work on Nc1nc(NC2Cc3ccc(F)cc3C2)nc(N2CCCCC2)n1 (stereo not shown) [MMV1580839] yielded an activity at 25 µM [1] of 40.6%, an activity at 25 µM [2] of 58.8% and an activity at 25 µM [3] of 53.9%. For the same molecule, the activity at 25 µM [4] was 9.06%, the activity at 100 µM [5] was 1.55% and the activity at 100 µM [6] was -0.246%. It also gave an activity at 100 µM [7] of 0.453% and an activity at 100 µM [8] of 4.45%.
CN(Cc1ccc(C(C)(C)C)cc1)Cc1cccc2ccccc12 [MMV637104] showed an activity at 25 µM [9] of 40.9%, an activity at 25 µM [2] of 58.2% and an activity at 25 µM [3] of -0.523%. It also gave an activity at 25 µM [4] of 64.9%, an activity at 100 µM [10] of 61.2% and an activity at 100 µM [11] of 61.4%. For the same molecule, the activity at 100 µM [12] was 65.7% and the activity at 100 µM [13] was 56.6%.
NC(=O)c1c(N)sc2c1CCCCC2 [MMV056052] was tested, and the activity at 25 µM [14] was 95.4%, the activity at 25 µM [2] was 93.9% and the activity at 25 µM [3] was 104%. The activity at 25 µM [4] was 87.9%, the activity at 100 µM [15] was 84.7% and the activity at 100 µM [16] was 86.2%. For the same molecule, the Percent fungal survival at 100 µM (replicate 2) was 80.1% and the activity at 100 µM [17] was 87.9%.
COc1ccc(COc2cc3oc(=O)c4cc(C(C)O)ccc4c3cc2OC)cc1 (stereo not shown) [MMV1580799] gave an activity at 25 µM [14] of 95.8%, an activity at 25 µM [2] of 100% and an activity at 25 µM [3] of 103%. For the same molecule, the activity at 25 µM [4] was 84.1%, the activity at 100 µM [18] was 90.3% and the activity at 100 µM [15] was 91.5%. It also gave an activity at 100 µM [19] of 87.1% and an activity at 100 µM [20] of 97%.
Work on CCOc1ccc(C(=O)NCCc2ccccc2)cc1 [MMV124656] yielded an activity at 25 µM [14] of 89.4%, an activity at 25 µM [2] of 88.1% and an activity at 25 µM [3] of 108%. For the same molecule, the activity at 25 µM [4] was 71.9%, the activity at 100 µM [15] was 57.6% and the activity at 100 µM [16] was 63.4%. It also gave a Percent fungal survival at 100 µM (replicate 2) of 48.9% and an activity at 100 µM [17] of 60.4%.
CC(=O)Oc1ccccc1C(=O)Nc1ncc([N+](=O)[O-])s1 [MMV688991] showed an activity at 25 µM [21] of 103%, an activity at 25 µM [22] of 90% and an activity at 25 µM [23] of 88.2%. For the same molecule, the activity at 25 µM [24] was 131%, the activity at 100 µM [25] was 68% and the activity at 100 µM [26] was 76.1%. The activity at 100 µM [27] was 57.8% and the activity at 100 µM [28] was 70.1%.
In the case of COc1ccccc1CN[C@H]1C2CCN(CC2)[C@H]1C(c1ccccc1)c1ccccc1 [MMV690480], the activity at 25 µM [14] is reported as 83.2%, the activity at 25 µM [2] is reported as 61.4% and the activity at 25 µM [3] is reported as 107%. The activity at 25 µM [4] was 81.2%, the activity at 100 µM [18] was -1.66% and the activity at 100 µM [15] was 27.7%. For the same molecule, the activity at 100 µM [19] was 2.79% and the activity at 100 µM [20] was 82%.
CC1=C(/C=C/C(C)=C/C=C/C(C)=C/C(=O)Nc2ccc(O)cc2)C(C)(C)CCC1 [MMV001793] was tested, and the activity at 25 µM [14] was 68.1%, the activity at 25 µM [2] was 69.1% and the activity at 25 µM [3] was 68.9%. For the same molecule, the activity at 25 µM [4] was 66.2%, the activity at 100 µM [15] was 62% and the activity at 100 µM [16] was 59%. It also gave a Percent fungal survival at 100 µM (replicate 2) of 58.3% and an activity at 100 µM [17] of 68.7%.
O=C(Nc1ccc(N2CCN(C(=O)c3ccccc3)CC2)cc1)c1ccc2c(c1)OCO2 [MMV1580505] was tested, and the activity at 25 µM [21] was 104%, the activity at 25 µM [22] was 103% and the activity at 25 µM [23] was 109%. It also gave an activity at 25 µM [24] of 101%, an activity at 100 µM [25] of 96.7% and an activity at 100 µM [26] of 102%. The activity at 100 µM [27] was 96.8% and the activity at 100 µM [28] was 91.4%.
